Laboratory results taken from PubChem BioAssay (NCI).
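Five compound concentrations were applied to cells in 96-well plates for 48 hours; endpoints were derived by simple linear interpolation of the resulting dose-response curve. TGI is the concentration that stops growth completely.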

Columns and labels:
Test in all cases: NCI tumour cell line growth inhibition, 48 h
TK-10 renal = system: TK-10 renal
OVCAR-3 ovarian = system: OVCAR-3 ovarian
SK-MEL-28 melanoma = system: SK-MEL-28 melanoma
CAKI-1 renal = system: CAKI-1 renal
MALME-3M melanoma = system: MALME-3M melanoma
COLO 205 colon = system: COLO 205 colon
HCT-116 colon = system: HCT-116 colon
UO-31 renal = system: UO-31 renal
HCT-15 colon = system: HCT-15 colon
HT29 colon = system: HT29 colon

SMILES | TGI (TK-10 renal) | TGI (OVCAR-3 ovarian) | TGI (SK-MEL-28 melanoma) | TGI (CAKI-1 renal) | TGI (MALME-3M melanoma) | TGI (COLO 205 colon) | TGI (HCT-116 colon) | TGI (UO-31 renal) | TGI (HCT-15 colon) | TGI (HT29 colon)
O=C(O)c1ccccc1CC1Cc2ccccc2C1=O (stereo unspecified) | > 100 µM | > 100 µM | > 100 µM | > 100 µM | > 100 µM | > 100 µM | > 100 µM | > 100 µM | > 100 µM | > 100 µM
CCOC(=O)c1nc2c(nc1C(=O)OCC)C(=O)c1ccccc1C2=O | 8.83 µM | 2.81 µM | 3.01 µM | 3.26 µM | 0.362 µM | 4.36 µM | 4.25 µM | 1.18 µM | > 34.4 µM | 9.06 µM
O=C1NCCN1/N=C/c1c(Cl)n(-c2ccccc2)c2ccccc12 | 43.6 µM | > 100 µM | – | 51.7 µM | 42.7 µM | 40.5 µM | 45.6 µM | 46.3 µM | 39.9 µM | 35.3 µM
COc1ccc(C2=N/C(=C\c3ccccc3)C(=O)O2)cc1 | > 100 µM | > 100 µM | > 100 µM | – | – | – | – | – | > 100 µM | > 100 µM
CC1(C)C2CCC1(C)[C@H](n1c(=O)n([C@@H]3CC4CCC3(C)C4(C)C)c(=O)n([C@@H]3CC4CCC3(C)C4(C)C)c1=O)C2 | > 100 µM | > 100 µM | > 100 µM | > 100 µM | – | – | > 100 µM | > 100 µM | > 100 µM | > 100 µM
OCCc1ccsc1-c1sc(-c2cc(CCO)c(-c3sccc3CCO)s2)cc1CCO | 44 µM | 32.5 µM | 41.4 µM | 44.3 µM | 23.7 µM | 31 µM | 43.8 µM | 31.4 µM | 40.5 µM | –
CN(C)C1(N(C)C)Oc2c(c(=O)n(C)c(=O)n2C)C(c2ccc(Br)cc2)C1(F)F (stereo unspecified) | > 100 µM | > 100 µM | > 100 µM | > 100 µM | – | > 100 µM | > 100 µM | > 100 µM | > 100 µM | –
COc1cccc2c1OC1(C=C2)Oc2ccccc2C(=O)N1C (stereo unspecified) | > 100 µM | > 100 µM | > 100 µM | > 100 µM | – | > 100 µM | > 100 µM | > 100 µM | > 100 µM | > 100 µM
CCOC(=O)c1cn2c(nc1=O)N[C@H]1CCCC[C@@H]12 | > 100 µM | > 100 µM | > 100 µM | > 100 µM | > 100 µM | > 100 µM | > 100 µM | > 100 µM | > 100 µM | > 100 µM
CCN(CC)/C(SCc1ccccc1)=C(\C(Cl)=C(Cl)Cl)[N+](=O)[O-] | 33.3 µM | 24.3 µM | 33.9 µM | 73.5 µM | 21.8 µM | 38.9 µM | 28.2 µM | 38.9 µM | 71.7 µM | 81.7 µM
Cc1ccc(-c2[nH]c(=O)n(C3OC(CO)C(O)C(O)C3O)c(=O)c2C#N)cc1 (stereo unspecified) | > 100 µM | > 100 µM | > 100 µM | > 100 µM | – | > 100 µM | > 100 µM | > 100 µM | > 100 µM | > 100 µM
CC1CCC(C(=O)O)(C(Br)C(=O)O)CC1 (stereo unspecified) | > 100 µM | > 100 µM | > 100 µM | > 100 µM | – | – | > 100 µM | > 100 µM | > 100 µM | > 100 µM
O=C(O)CCC(=O)OC1N=C(c2ccccc2Cl)c2cc([N+](=O)[O-])ccc2NC1=O (stereo unspecified) | > 100 µM | > 100 µM | > 100 µM | > 100 µM | > 100 µM | – | 65.6 µM | > 100 µM | > 100 µM | > 100 µM
CCCCCCOc1ccc(C(=O)NOC)cc1 | > 100 µM | > 100 µM | > 100 µM | > 100 µM | – | > 100 µM | > 100 µM | > 100 µM | > 100 µM | > 100 µM
N#CC12C(=O)N=C(N)C1(C#N)C(c1ccco1)NC1=C2CCCC1 (stereo unspecified) | > 100 µM | – | > 100 µM | > 100 µM | > 100 µM | > 100 µM | > 100 µM | > 100 µM | > 100 µM | > 100 µM
CN(C)c1ccc(S(=O)Nc2ccccc2)cc1 (stereo unspecified) | > 100 µM | > 100 µM | > 100 µM | – | > 100 µM | 63.1 µM | > 100 µM | > 100 µM | > 100 µM | > 100 µM
CS(=O)(=O)OCC(CCl)(CCl)CCl | > 100 µM | > 100 µM | > 100 µM | – | – | > 100 µM | > 100 µM | > 100 µM | > 100 µM | > 100 µM
CCOC(=O)C1=C(C)C2C=C(c3cccs3)CC(c3ccc(Cl)cc3)=C2OC1=O (stereo unspecified) | > 100 µM | > 100 µM | > 100 µM | > 100 µM | – | > 100 µM | 69.2 µM | > 100 µM | 56.5 µM | > 100 µM

SMILES | TGI (TK-10 renal) | TGI (OVCAR-3 ovarian) | TGI (SK-MEL-28 melanoma) | TGI (CAKI-1 renal) | TGI (MALME-3M melanoma) | TGI (COLO 205 colon) | TGI (HCT-116 colon) | TGI (UO-31 renal) | TGI (HCT-15 colon) | TGI (HT29 colon)
COc1ccc2c(c1)OCC1Cc3ccccc3OC21 (stereo unspecified) | > 100 µM | > 100 µM | – | > 100 µM | > 100 µM | > 100 µM | > 100 µM | > 100 µM | > 100 µM | > 100 µM
CCCSCC(P(=O)(O)O)P(=O)(O)O | – | > 86.9 µM | > 100 µM | > 100 µM | > 100 µM | > 100 µM | > 100 µM | > 100 µM | > 100 µM | > 100 µM
O=c1[nH]c(=O)n(C2OC(CO)C(O)C2O)c2nc(-c3ccc(-c4ccccc4)cc3)cnc12 (stereo unspecified) | > 100 µM | – | – | > 100 µM | > 100 µM | > 100 µM | > 100 µM | > 100 µM | > 100 µM | > 100 µM
COc1cc(C2c3cc4c(cc3OC(NN)C2C)OCO4)cc(OC)c1OC (stereo unspecified) | > 100 µM | 1.04 µM | > 100 µM | > 90.6 µM | > 100 µM | 13.9 µM | > 28.2 µM | > 100 µM | > 37.4 µM | –
O=C1c2ccccc2-c2c1c(-c1ccc(F)cc1)nc1ccc3ccccc3c21 | – | > 100 µM | > 100 µM | > 100 µM | > 100 µM | > 100 µM | > 100 µM | > 100 µM | > 100 µM | > 100 µM
CSc1nsc(-c2ccccc2)[s+]1 | > 100 µM | > 100 µM | > 100 µM | > 100 µM | > 100 µM | > 100 µM | > 100 µM | > 100 µM | > 100 µM | –
COc1ccc2c(C)cc(=O)oc2c1OC | > 100 µM | > 100 µM | > 100 µM | – | > 100 µM | > 100 µM | > 100 µM | > 100 µM | > 100 µM | > 100 µM
CCOC(=O)c1c(C)nc2c3ccccc3c(C#N)c(C)n12 | > 100 µM | > 100 µM | > 100 µM | > 100 µM | – | – | > 100 µM | > 100 µM | > 100 µM | –
CC1=NN(c2cccc(Cl)c2)C2(SCC(=O)N2c2nc3ccccc3s2)/C1=C\c1ccccc1O (stereo unspecified) | > 100 µM | 80.3 µM | > 100 µM | 57.5 µM | – | – | 28.2 µM | 38.5 µM | 34.1 µM | 67.4 µM
COc1cc(NS(C)(=O)=O)ccc1Nc1cc(C)[nH]c2ccc3nccc3c12 | > 100 µM | > 100 µM | > 100 µM | > 100 µM | – | > 100 µM | > 100 µM | > 100 µM | > 100 µM | > 100 µM
COc1cc(/C=C/C(=O)CC(=O)/C=C/c2ccc(OC(=O)CCCCC3CCSS3)c(OC)c2)ccc1OC(=O)CCCCC1CCSS1 (stereo unspecified) | > 100 µM | > 100 µM | > 100 µM | – | > 100 µM | > 100 µM | > 100 µM | > 100 µM | > 100 µM | > 100 µM
Cc1nc(N)c(N2CCN([N+](=O)[O-])CC2)c(=O)[nH]1 | > 100 µM | > 100 µM | > 100 µM | – | > 100 µM | > 100 µM | > 100 µM | > 100 µM | > 100 µM | > 100 µM
N#Cc1c(-c2ccccc2)/c(=C\Nc2ccc(F)cc2)c(=O)n2c1nc1ccccc12 | > 100 µM | 48.2 µM | > 100 µM | 39.9 µM | 52.7 µM | > 100 µM | > 100 µM | 45.6 µM | > 100 µM | –
CCOC(=O)c1ccc(NCC#CCN2CCOCC2)cc1 | – | > 100 µM | > 100 µM | – | > 100 µM | > 100 µM | > 100 µM | > 100 µM | > 100 µM | > 100 µM
COc1ccc(NC(=O)CC(=O)N2N=C(N3c4ccccc4Sc4ccccc43)CC2c2ccccc2)cc1 (stereo unspecified) | > 100 µM | > 100 µM | > 100 µM | > 100 µM | – | > 100 µM | > 100 µM | > 100 µM | > 100 µM | > 100 µM
O=C1NCC2(CCN(CCCC3(c4ccc(F)cc4)OCCO3)CC2)N1c1ccccc1 | > 100 µM | > 100 µM | > 100 µM | > 100 µM | > 100 µM | > 100 µM | > 100 µM | – | > 100 µM | > 100 µM
Cc1ccc2c(c1)C(=O)C1(Cc3ccccc3C1=O)C2 (stereo unspecified) | > 100 µM | > 100 µM | > 100 µM | – | > 100 µM | > 100 µM | > 100 µM | 39 µM | > 100 µM | > 100 µM
